Tests used:
Male ICR mice [1] = test: Lethality noted in the mouse behavioral procedures; type: in vivo; settings: Table 6; @ 30 (mg/kg)
Procedure: (§1) Resorcinols were synthesized in our labs (Organix, Inc., Woburn, Mass.) according to the procedure specified below and were suspended in a vehicle of absolute ethanol, Emulphor-620 (Rhone-Poulenc, Inc., Princeton, N.J.), and saline in a ratio of 1:1:18. Drugs were administered to the mice intravenously (i.v.) in the tail vein at a volume of 0.1 ml/10 g.
(§2) Prior to testing in the behavioral procedures, mice were acclimated to the experimental setting (ambient temperature 22–24° C.) overnight. Pre-injection control values were determined for rectal temperature and tail-flick latency (in sec). […] Tail-flick latency was measured at 20 min post-injection. Maximum latency of 10 sec was used. Antinociception was calculated as percent of maximum possible effect {% MPE=[(test−control latency)/(10-control)]×100}. Control latencies typically ranged from 1.5 to 4.0 sec. At 30 min post-injection, rectal temperature was measured This value was expressed as the difference between control temperature (before injection) and temperatures following drug administration (° C.). Different mice (n=5–6 per dose) were tested for each dose of each compound. Each mouse was tested in each of the 3 procedures.

Male ICR mice [2] = test: Tail-flick antinociception (TF, % MPE) in mice; type: in vivo, mouse
Procedure: (§3) Male ICR mice (25–32 g), obtained from Harlan (Dublin, Va.), were housed in groups of five. All animals were kept in a temperature-controlled (20–22° C.) environment with a 12-hour light-dark cycle (lights on at 7 a.m.). Separate mice were used for testing each drug dose in the in vivo behavioral procedures. Brain tissue for binding studies was obtained from male Sprague-Dawley rats (150–200 g) purchased from Harlan Laboratories (Dublin, Va.).
(§4) Measurement of spontaneous activity in mice occurred in standard activity chambers interfaced with a Digiscan Animal Activity Monitor (Omnitech Electronics, Inc., Columbus, Ohio). A standard tail-flick apparatus and a digital thermometer (Fisher Scientific, Pittsburgh, Pa.) were used to measure antinociception and rectal temperature, respectively
as §1, §2
(§5) Based on data obtained from numerous previous studies with cannabinoids, maximal cannabinoid effects in each procedure were estimated as follows: 90% inhibition of spontaneous activity, 100% MPE in the tail flick procedure, and −6° C. change in rectal temperature. ED50's were defined as the dose at which half maximal effect occurred. For drugs that produced one or more cannabinoid effect, ED50's were calculated separately using least-squares linear regression on the linear part of the dose-effect curve for each measure in the mouse tetrad, plotted against log10 transformation of the dose. For the purposes of potency comparison, potencies were expressed as μmol/kg.

CB1 receptor = CB1 receptor (Rattus norvegicus, UniProt P20272); test: CB1 binding procedure: displacement of [3H]CP 55,940 from rat whole-brain P2 membranes; parameters: whole brain was homogenized and centrifuged; from tissue; host or cells: rat whole brain, P2 membrane fraction; settings: means ± SEM; [3H]CP 55,940, rat brain membranes; read-out: Ki (nM) CB1
Procedure: as §3
The methods used for tissue preparation and binding have been described previously (Compton et al., 1993) and are similar to those described by Devane et al. (1988). All assays, as described briefly below, were performed in triplicate, and the results represent the combined data from three to six individual experiments.
Following decapitation and rapid removal of the brain, whole brain was homogenized and centrifuged. The resulting pellet was termed P1. The supernatant was saved and combined with the two subsequent supernatants obtained from washing of the P1 pellet. The combined supernatant fractions were centrifuged, resulting in the P2 pellet. After further incubation and centrifuging, this pellet was resuspended in assay buffer to a protein concentration of approximately 2 mg/ml. The membrane preparation was quickly frozen in a bath solution of dry ice and 2-methylbutane (Sigma Chemical Co., St. Louis, Mo.), then stored at −80° C. for no more than 2 weeks. Prior to performing a binding assay an aliquot of frozen membrane was rapidly thawed and protein values determined by the method of Bradford (1976).
Binding was initiated by the addition of 150 μg of P2 membrane to test tubes containing 1 nM of [^3H] CP 55,940 (79 Ci/mmol) and a sufficient quantity of buffer to bring the total incubation volume to 1 ml. Nonspecific binding was determined by the addition of 1 μM unlabeled CP 55,940. Following incubation at 30° C. for 1 hr, binding was terminated by addition of ice cold buffer and vacuum filtration through pretreated filters in a 12-well sampling manifold (Millipore, Bedford, Mass.). After washing, filters were placed into plastic scintillation vials (Packard, Downer Grove, Ill.) and shaken. The quantity of radioactivity present was determined by liquid scintillation spectrometry.
(§6) In addition, multiple linear regression was used to calculate the overall degree of relationship between CB1 binding affinity and potency in the mouse measures for all active cannabinoids. […] Ki values for CB1 and CB2 binding were obtained from Scatchard displacement analysis as determined via EBDA program of the KELL software package (Biosoft, Milltown, N.J.).

Male ICR mice [3] = test: Change in rectal temperature (RT) in mice; type: in vivo, mouse
Procedure: as §3, §4, §1, §2, §5

Male ICR mice [4] = test: Suppression of spontaneous activity (SA) in mice; type: in vivo, mouse
Procedure: as §3, §4, §1, §2, §5

CB2 receptor = target: T1, CB2 receptor (Homo sapiens, UniProt P34972); test: CB2 binding procedure: displacement of [3H]CP-55,940 from membranes of transfected CHO cells; settings: means ± SEM; [3H]CP-55,940, transfected CHO cell membranes; read-out: Ki (nM) CB2
T1 construct: expressed in transfected cells; host or cells: CHO cells, G418-selected transfected line
Procedure: Membranes for CB2 binding were obtained from CHO cells. The transfected cell line was maintained in Dublecco's Modified Eagle Medium (Gibco BRL, Grand Island, N.Y.) with 10% fetal clone II (HyClone Laboratories, Inc., Logan, Utah) plus 0.3 to 0.5 mg/ml G418 (to maintain selective pressure) under 5% CO2 at 37% C. Cells were harvested with 1 mM EDTA in phosphate-buffered saline and were centrifuged at 1000×g for 5 min at 4% C. The supernatant was saved and the P1 pellet was resuspended in centrifugation buffer. Homogenization and centrifugation were repeated twice and the combined supernatant fractions were centrifuged at 40,000×g for 30 min at 4% C. The P2 pellet was resuspended in centrifugation buffer 2 (Tris HCl, 50 mM; EDTA, 1 mM; and MgCl2, 3 mM, pH 7.4) to a protein concentration of approximately 2 mg/ml. Protein concentrations were determined by the method of Bradford (1976) using Bio-Rad Protein Assay (Bio-Rad, Richmond, Calif.) and BSA standards (fatty acid free, Sigma Chemical Co., St. Louis, Mo.). The membrane preparation was divided into amounts convenient for binding assays and frozen rapidly in dry ice and stored at −80% C.
Binding was initiated by the addition of 50 μg of quickly thawed P2 membranes to test tubes containing [^3H]CP-55,940 (final reaction concentration 0.5 nM), an appropriate concentration of unlabeled CP-55,940 or test drug, and sufficient quantity of assay buffer (50 mM Tris-HCl, 1 mM EDTA, 3 mM MgCl2, 5 mg/ml bovine serum albumin, pH 7.4) to bring the total incubation volume to 0.5 ml. Concentration of [^3H]CP-55,940 in saturation studies ranged from 50 to 10,000 pM. Nonspecific binding was determined by the addition of 1 μM unlabeled CP-55,940. CP-55,940 and all cannabinoid analogs were prepared by suspension in assay buffer from a 1 mg/ml ethanolic stock without evaporation of the ethanol (final concentration of no more than 0.4%). In competition studies, analog concentrations ranged from 0.1 nM to 10 μM. After incubation at 30% C for 1 hr, binding was terminated by the addition of 2 ml of ice-cold wash buffer (50 mM Tris-HCl and 1 mg/ml BSA) and vacuum filtration through pre-treated filters in a 12-well sampling manifold (Millipore, Bedford, Mass.). Reaction vessels were washed once with 2 ml of ice-cold wash buffer. Filters were placed into 7-ml plastic scintillation vials (RPI Corp., Mount Prospect, Ill.) with 4 ml of Budget-Solve (RPI Corp.). After shaking for 30 min, the radioactivity present was determined by liquid scintillation spectrometry. Three reaction vessels were used for each drug concentration in each assay. The results represent the combined data of three independent experiments. All assays were performed in siliconized test tubes, which were prepared by air drying (12 hr) inverted borosilicate tubes after two rinses with a 0.1% solution of AquaSil (Pierce, Rockford, Ill.). The GF/C glass-fiber filters (2.4 cm, Baxter, McGaw Park, Ill.) were pre-treated in a 0.1% solution of pH 7.4 polyethylenimine (Sigma Chemical Co.) for at least 6 hr.
as §6

Chain of CB1 receptor (P20272 whole entry): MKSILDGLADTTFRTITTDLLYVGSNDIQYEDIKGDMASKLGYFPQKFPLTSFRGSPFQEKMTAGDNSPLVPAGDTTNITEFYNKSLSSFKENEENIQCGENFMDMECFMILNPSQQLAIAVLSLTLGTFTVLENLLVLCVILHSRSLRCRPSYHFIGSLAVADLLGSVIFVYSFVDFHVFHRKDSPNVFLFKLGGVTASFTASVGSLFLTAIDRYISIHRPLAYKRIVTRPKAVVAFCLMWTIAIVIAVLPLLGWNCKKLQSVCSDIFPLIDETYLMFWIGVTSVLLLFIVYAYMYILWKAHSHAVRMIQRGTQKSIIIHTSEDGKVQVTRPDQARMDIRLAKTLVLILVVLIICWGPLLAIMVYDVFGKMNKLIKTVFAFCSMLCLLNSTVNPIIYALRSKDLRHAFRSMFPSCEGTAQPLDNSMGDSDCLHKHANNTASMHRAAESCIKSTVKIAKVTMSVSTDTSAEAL
T1 sequence (P34972 whole entry): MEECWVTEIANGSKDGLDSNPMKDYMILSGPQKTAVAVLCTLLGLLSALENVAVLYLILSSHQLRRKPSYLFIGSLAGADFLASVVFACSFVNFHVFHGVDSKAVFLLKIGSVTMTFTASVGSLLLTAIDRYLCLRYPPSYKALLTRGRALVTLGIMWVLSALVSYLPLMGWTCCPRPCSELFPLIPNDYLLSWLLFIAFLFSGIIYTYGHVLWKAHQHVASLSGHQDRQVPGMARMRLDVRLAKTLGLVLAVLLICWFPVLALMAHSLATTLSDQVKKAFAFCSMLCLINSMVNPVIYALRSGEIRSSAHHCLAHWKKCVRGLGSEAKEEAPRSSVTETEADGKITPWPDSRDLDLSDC

## CCCCCCC(C)(C)c1cc(O)c(C2CCN(C)CC2)c(O)c1 [O-1662, 2-(1-Methylpiperidin-4-yl)-5-(1′,1′-dimethylheptyl)-re-sorcinol]
Male ICR mice [1]
  Lethality at dose: Lethal
Male ICR mice [2]; Table 6, @ 10 (mg/kg)
  T.F. % effect at dose: 7 @ 10%
Male ICR mice [2]; mice, i.v., 30 mg/kg
  TF percent effect (% MPE) at the highest dose: 30%(30)
CB1 receptor
  Ki: > 10000 nM
Male ICR mice [3]; Table 6, @ 10 (mg/kg)
  R.T. effect at dose: 1 °C
Male ICR mice [3]; mice, i.v., 30 mg/kg
  RT effect at the highest dose (change in rectal temperature): −3(30) °C
Male ICR mice [4]; Table 6, stimulation, @ 10 (mg/kg)
  S.A % effect at dose, stim.: 77% stim.
Male ICR mice [4]; mice, i.v., 30 mg/kg, % inhibition of activity of vehicle group
  SA percent effect at the highest dose: 87%(30)
CB2 receptor
  Ki: 5420 ± 1100 nM

Reference: patent US7179800B2 (priority 2002, dated 2007)
